From the NIST ThermoML archive (doi:10.1016/j.jct.2012.09.017)
± gives the expanded uncertainty stated by the source.

Test: activity coefficient (dimensionless); of the first substance listed, at infinite dilution; xn = mol fraction of the nth substance listed
Conditions: 343.15 K; 101 kPa; Liquid; Chromatography; x1 = 0

Q: With `CCc1ccccc1` [ethylbenzene] + CCCC[N+]1(C)CCCC1.O=C1O[B-]2(OC1=O)OC(=O)C(=O)O2 as the compound, how does the activity coefficient read?
A: 3.85 ± 0.2

Q: For `CCC1CCCCC1` [ethylcyclohexane] + CCCC[N+]1(C)CCCC1.N#C[B-](C#N)(C#N)C#N, which activity coefficient is on record?
A: 14.8 ± 0.8

Q: For `CCC1CCCCC1` [ethylcyclohexane] + CCCC[N+]1(C)CCCC1.O=C1O[B-]2(OC1=O)OC(=O)C(=O)O2, which activity coefficient is on record?
A: 36.9 ± 1.9

Q: Which activity coefficient does the source give for `CCCCCCC` [heptane] + CCCC[N+]1(C)CCCC1.N#C[B-](C#N)(C#N)C#N here?
A: 19.7 ± 1

Q: Which activity coefficient does the source give for `CCCCCCC` [heptane] + CCCC[N+]1(C)CCCC1.O=C1O[B-]2(OC1=O)OC(=O)C(=O)O2 here?
A: 55.4 ± 2.9

Q: For `CO` [methanol] + CCCC[N+]1(C)CCCC1.N#C[B-](C#N)(C#N)C#N, which activity coefficient is on record?
A: 0.878 ± 0.04

Q: With `CO` [methanol] + CCCC[N+]1(C)CCCC1.O=C1O[B-]2(OC1=O)OC(=O)C(=O)O2 as the compound, how does the activity coefficient read?
A: 1.19 ± 0.05

Q: For `COC(C)=O` [methyl ethanoate] + CCCC[N+]1(C)CCCC1.N#C[B-](C#N)(C#N)C#N, which activity coefficient is on record?
A: 0.708 ± 0.035

Q: For `COC(C)=O` [methyl ethanoate] + CCCC[N+]1(C)CCCC1.O=C1O[B-]2(OC1=O)OC(=O)C(=O)O2, which activity coefficient is on record?
A: 1.04 ± 0.05

Q: With `CC1CCCCC1` [methylcyclohexane] + CCCC[N+]1(C)CCCC1.N#C[B-](C#N)(C#N)C#N as the compound, how does the activity coefficient read?
A: 10.6 ± 0.5

Q: Which activity coefficient does the source give for `CC1CCCCC1` [methylcyclohexane] + CCCC[N+]1(C)CCCC1.O=C1O[B-]2(OC1=O)OC(=O)C(=O)O2 here?
A: 26.5 ± 1.4

Q: For `C[N+](=O)[O-]` [nitromethane] + CCCC[N+]1(C)CCCC1.N#C[B-](C#N)(C#N)C#N, which activity coefficient is on record?
A: 0.431 ± 0.029

Q: With `C[N+](=O)[O-]` [nitromethane] + CCCC[N+]1(C)CCCC1.O=C1O[B-]2(OC1=O)OC(=O)C(=O)O2 as the compound, how does the activity coefficient read?
A: 0.423 ± 0.029

Q: With `C=CCCCCCC` [oct-1-ene] + CCCC[N+]1(C)CCCC1.N#C[B-](C#N)(C#N)C#N as the compound, how does the activity coefficient read?
A: 14 ± 0.7

Same assay, conditions: 353.15 K; 101 kPa; Liquid; Chromatography; x1 = 0

Q: With `CCC(C)=O` [butanone] + CCCC[N+]1(C)CCCC1.O=C1O[B-]2(OC1=O)OC(=O)C(=O)O2 as the compound, how does the activity coefficient read?
A: 1.11 ± 0.05

Q: For `C1CCCCC1` [cyclohexane] + CCCC[N+]1(C)CCCC1.N#C[B-](C#N)(C#N)C#N, which activity coefficient is on record?
A: 7.11 ± 0.37

Q: Which activity coefficient does the source give for `C1CCCCC1` [cyclohexane] + CCCC[N+]1(C)CCCC1.O=C1O[B-]2(OC1=O)OC(=O)C(=O)O2 here?
A: 16.2 ± 0.8

Q: Which activity coefficient does the source give for `ClCCl` [dichloromethane] + CCCC[N+]1(C)CCCC1.N#C[B-](C#N)(C#N)C#N here?
A: 0.59 ± 0.032

Q: Which activity coefficient does the source give for `ClCCl` [dichloromethane] + CCCC[N+]1(C)CCCC1.O=C1O[B-]2(OC1=O)OC(=O)C(=O)O2 here?
A: 0.774 ± 0.037

Q: For `CC(C)OC(C)C` [diisopropyl ether] + CCCC[N+]1(C)CCCC1.N#C[B-](C#N)(C#N)C#N, which activity coefficient is on record?
A: 5.84 ± 0.3

Q: With `CC(C)OC(C)C` [diisopropyl ether] + CCCC[N+]1(C)CCCC1.O=C1O[B-]2(OC1=O)OC(=O)C(=O)O2 as the compound, how does the activity coefficient read?
A: 16 ± 0.8

Q: With `COC(=O)OC` [dimethyl carbonate] + CCCC[N+]1(C)CCCC1.N#C[B-](C#N)(C#N)C#N as the compound, how does the activity coefficient read?
A: 0.57 ± 0.032

Q: Which activity coefficient does the source give for `COC(=O)OC` [dimethyl carbonate] + CCCC[N+]1(C)CCCC1.O=C1O[B-]2(OC1=O)OC(=O)C(=O)O2 here?
A: 0.87 ± 0.04

Q: Which activity coefficient does the source give for `CCO` [ethanol] + CCCC[N+]1(C)CCCC1.N#C[B-](C#N)(C#N)C#N here?
A: 1.02 ± 0.05

Q: With `CCO` [ethanol] + CCCC[N+]1(C)CCCC1.O=C1O[B-]2(OC1=O)OC(=O)C(=O)O2 as the compound, how does the activity coefficient read?
A: 1.61 ± 0.08

Q: For `CCOC(C)=O` [ethyl acetate] + CCCC[N+]1(C)CCCC1.N#C[B-](C#N)(C#N)C#N, which activity coefficient is on record?
A: 1 ± 0.04

Q: Which activity coefficient does the source give for `CCOC(C)=O` [ethyl acetate] + CCCC[N+]1(C)CCCC1.O=C1O[B-]2(OC1=O)OC(=O)C(=O)O2 here?
A: 1.74 ± 0.09

Q: For `CCc1ccccc1` [ethylbenzene] + CCCC[N+]1(C)CCCC1.N#C[B-](C#N)(C#N)C#N, which activity coefficient is on record?
A: 1.73 ± 0.09

Q: With `CCc1ccccc1` [ethylbenzene] + CCCC[N+]1(C)CCCC1.O=C1O[B-]2(OC1=O)OC(=O)C(=O)O2 as the compound, how does the activity coefficient read?
A: 3.74 ± 0.19

Q: Which activity coefficient does the source give for `CCC1CCCCC1` [ethylcyclohexane] + CCCC[N+]1(C)CCCC1.N#C[B-](C#N)(C#N)C#N here?
A: 13.9 ± 0.7

Q: With `CCC1CCCCC1` [ethylcyclohexane] + CCCC[N+]1(C)CCCC1.O=C1O[B-]2(OC1=O)OC(=O)C(=O)O2 as the compound, how does the activity coefficient read?
A: 33 ± 1.7

Q: For `CCCCCCC` [heptane] + CCCC[N+]1(C)CCCC1.N#C[B-](C#N)(C#N)C#N, which activity coefficient is on record?
A: 18.5 ± 1

Q: Which activity coefficient does the source give for `CCCCCCC` [heptane] + CCCC[N+]1(C)CCCC1.O=C1O[B-]2(OC1=O)OC(=O)C(=O)O2 here?
A: 49.5 ± 2.6

Q: With `CO` [methanol] + CCCC[N+]1(C)CCCC1.N#C[B-](C#N)(C#N)C#N as the compound, how does the activity coefficient read?
A: 0.831 ± 0.039

Q: For `CO` [methanol] + CCCC[N+]1(C)CCCC1.O=C1O[B-]2(OC1=O)OC(=O)C(=O)O2, which activity coefficient is on record?
A: 1.11 ± 0.05

Q: Which activity coefficient does the source give for `COC(C)=O` [methyl ethanoate] + CCCC[N+]1(C)CCCC1.N#C[B-](C#N)(C#N)C#N here?
A: 0.724 ± 0.036

Q: With `COC(C)=O` [methyl ethanoate] + CCCC[N+]1(C)CCCC1.O=C1O[B-]2(OC1=O)OC(=O)C(=O)O2 as the compound, how does the activity coefficient read?
A: 1.06 ± 0.05

Q: For `CC1CCCCC1` [methylcyclohexane] + CCCC[N+]1(C)CCCC1.N#C[B-](C#N)(C#N)C#N, which activity coefficient is on record?
A: 10.1 ± 0.5

Q: Which activity coefficient does the source give for `CC1CCCCC1` [methylcyclohexane] + CCCC[N+]1(C)CCCC1.O=C1O[B-]2(OC1=O)OC(=O)C(=O)O2 here?
A: 24 ± 1.2

Q: Which activity coefficient does the source give for `C[N+](=O)[O-]` [nitromethane] + CCCC[N+]1(C)CCCC1.N#C[B-](C#N)(C#N)C#N here?
A: 0.433 ± 0.029

Q: Which activity coefficient does the source give for `C[N+](=O)[O-]` [nitromethane] + CCCC[N+]1(C)CCCC1.O=C1O[B-]2(OC1=O)OC(=O)C(=O)O2 here?
A: 0.43 ± 0.029

Q: Which activity coefficient does the source give for `C=CCCCCCC` [oct-1-ene] + CCCC[N+]1(C)CCCC1.N#C[B-](C#N)(C#N)C#N here?
A: 13.4 ± 0.7

Same assay, conditions: 363.15 K; 101 kPa; Liquid; Chromatography; x1 = 0

Q: With `CCC(C)=O` [butanone] + CCCC[N+]1(C)CCCC1.O=C1O[B-]2(OC1=O)OC(=O)C(=O)O2 as the compound, how does the activity coefficient read?
A: 1.11 ± 0.05

Q: Which activity coefficient does the source give for `C1CCCCC1` [cyclohexane] + CCCC[N+]1(C)CCCC1.O=C1O[B-]2(OC1=O)OC(=O)C(=O)O2 here?
A: 14.7 ± 0.8

Q: Which activity coefficient does the source give for `ClCCl` [dichloromethane] + CCCC[N+]1(C)CCCC1.O=C1O[B-]2(OC1=O)OC(=O)C(=O)O2 here?
A: 0.789 ± 0.037

Q: For `CC(C)OC(C)C` [diisopropyl ether] + CCCC[N+]1(C)CCCC1.O=C1O[B-]2(OC1=O)OC(=O)C(=O)O2, which activity coefficient is on record?
A: 15.1 ± 0.8

Q: With `COC(=O)OC` [dimethyl carbonate] + CCCC[N+]1(C)CCCC1.O=C1O[B-]2(OC1=O)OC(=O)C(=O)O2 as the compound, how does the activity coefficient read?
A: 0.877 ± 0.04

Q: With `CCO` [ethanol] + CCCC[N+]1(C)CCCC1.O=C1O[B-]2(OC1=O)OC(=O)C(=O)O2 as the compound, how does the activity coefficient read?
A: 1.49 ± 0.07

Q: Which activity coefficient does the source give for `CCOC(C)=O` [ethyl acetate] + CCCC[N+]1(C)CCCC1.O=C1O[B-]2(OC1=O)OC(=O)C(=O)O2 here?
A: 1.73 ± 0.09

Q: With `CCc1ccccc1` [ethylbenzene] + CCCC[N+]1(C)CCCC1.O=C1O[B-]2(OC1=O)OC(=O)C(=O)O2 as the compound, how does the activity coefficient read?
A: 3.65 ± 0.19

Q: For `CCC1CCCCC1` [ethylcyclohexane] + CCCC[N+]1(C)CCCC1.O=C1O[B-]2(OC1=O)OC(=O)C(=O)O2, which activity coefficient is on record?
A: 29.7 ± 1.5

Q: For `CCCCCCC` [heptane] + CCCC[N+]1(C)CCCC1.O=C1O[B-]2(OC1=O)OC(=O)C(=O)O2, which activity coefficient is on record?
A: 44.7 ± 2.3

Q: For `CO` [methanol] + CCCC[N+]1(C)CCCC1.O=C1O[B-]2(OC1=O)OC(=O)C(=O)O2, which activity coefficient is on record?
A: 1.05 ± 0.05

Q: With `COC(C)=O` [methyl ethanoate] + CCCC[N+]1(C)CCCC1.O=C1O[B-]2(OC1=O)OC(=O)C(=O)O2 as the compound, how does the activity coefficient read?
A: 1.08 ± 0.05

Q: For `CC1CCCCC1` [methylcyclohexane] + CCCC[N+]1(C)CCCC1.O=C1O[B-]2(OC1=O)OC(=O)C(=O)O2, which activity coefficient is on record?
A: 21.6 ± 1.1

Q: Which activity coefficient does the source give for `C[N+](=O)[O-]` [nitromethane] + CCCC[N+]1(C)CCCC1.O=C1O[B-]2(OC1=O)OC(=O)C(=O)O2 here?
A: 0.436 ± 0.029

Same assay, conditions: 373.15 K; 101 kPa; Liquid; Chromatography; x1 = 0

Q: For `CCC(C)=O` [butanone] + CCCC[N+]1(C)CCCC1.O=C1O[B-]2(OC1=O)OC(=O)C(=O)O2, which activity coefficient is on record?
A: 1.1 ± 0.05

Q: With `C1CCCCC1` [cyclohexane] + CCCC[N+]1(C)CCCC1.O=C1O[B-]2(OC1=O)OC(=O)C(=O)O2 as the compound, how does the activity coefficient read?
A: 13.6 ± 0.7

Q: With `ClCCl` [dichloromethane] + CCCC[N+]1(C)CCCC1.O=C1O[B-]2(OC1=O)OC(=O)C(=O)O2 as the compound, how does the activity coefficient read?
A: 0.803 ± 0.038

Q: With `CC(C)OC(C)C` [diisopropyl ether] + CCCC[N+]1(C)CCCC1.O=C1O[B-]2(OC1=O)OC(=O)C(=O)O2 as the compound, how does the activity coefficient read?
A: 14.4 ± 0.7

Q: With `COC(=O)OC` [dimethyl carbonate] + CCCC[N+]1(C)CCCC1.O=C1O[B-]2(OC1=O)OC(=O)C(=O)O2 as the compound, how does the activity coefficient read?
A: 0.884 ± 0.04

Q: Which activity coefficient does the source give for `CCO` [ethanol] + CCCC[N+]1(C)CCCC1.O=C1O[B-]2(OC1=O)OC(=O)C(=O)O2 here?
A: 1.38 ± 0.07

Q: For `CCOC(C)=O` [ethyl acetate] + CCCC[N+]1(C)CCCC1.O=C1O[B-]2(OC1=O)OC(=O)C(=O)O2, which activity coefficient is on record?
A: 1.73 ± 0.09

Q: Which activity coefficient does the source give for `CCc1ccccc1` [ethylbenzene] + CCCC[N+]1(C)CCCC1.O=C1O[B-]2(OC1=O)OC(=O)C(=O)O2 here?
A: 3.56 ± 0.18

Q: Which activity coefficient does the source give for `CCC1CCCCC1` [ethylcyclohexane] + CCCC[N+]1(C)CCCC1.O=C1O[B-]2(OC1=O)OC(=O)C(=O)O2 here?
A: 27 ± 1.4

Q: With `CCCCCCC` [heptane] + CCCC[N+]1(C)CCCC1.O=C1O[B-]2(OC1=O)OC(=O)C(=O)O2 as the compound, how does the activity coefficient read?
A: 40.8 ± 2.1

Q: With `CO` [methanol] + CCCC[N+]1(C)CCCC1.O=C1O[B-]2(OC1=O)OC(=O)C(=O)O2 as the compound, how does the activity coefficient read?
A: 0.99 ± 0.043

Q: For `COC(C)=O` [methyl ethanoate] + CCCC[N+]1(C)CCCC1.O=C1O[B-]2(OC1=O)OC(=O)C(=O)O2, which activity coefficient is on record?
A: 1.09 ± 0.05

Q: Which activity coefficient does the source give for `CC1CCCCC1` [methylcyclohexane] + CCCC[N+]1(C)CCCC1.O=C1O[B-]2(OC1=O)OC(=O)C(=O)O2 here?
A: 19.9 ± 1

Q: For `C[N+](=O)[O-]` [nitromethane] + CCCC[N+]1(C)CCCC1.O=C1O[B-]2(OC1=O)OC(=O)C(=O)O2, which activity coefficient is on record?
A: 0.441 ± 0.029
